# Results taken from patent US5945422A, “N-oxides of amino containing pyrido [2,3-D] pyrimidines” (Warner-Lambert Company, priority 1998, dated 1999).
# Experiments:
# Type in all cases: biochemical
# [1] = target: T1, mouse PDGF-β receptor tyrosine kinase (Mus musculus, UniProt P05622); assay: PDGF receptor tyrosine kinase assay (PDGFr-TK); details: 10 min at 25° C., glutamate-tyrosine co-polymer substrate; read-out: PDGFr-TK inhibition, IC50
# T1 construct: amplify a fragment of DNA that codes for the intracellular tyrosine kinase domain; made in house; host or cells: SF9 insect cells, baculovirus (cell lysate used)
# Experimental: SF9 insect cells were infected with the virus to overexpress the protein, and the cell lysate was used for the assay. […] The reaction was terminated by the addition of 100 μL of 30% trichloroacetic acid (TCA) containing 20 mM sodium pyrophosphate and precipitation of material onto glass fiber filter mats (Wallac). […] Nonspecific activity was defined as radioactivity retained on the filters following incubation of samples with buffer alone (no enzyme). Specific enzymatic activity was defined as total activity (enzyme plus buffer) minus nonspecific activity.
# [2] = target: T2, human FGF-1 (flg) receptor tyrosine kinase (Homo sapiens, UniProt P11362); assay: FGF receptor tyrosine kinase assay (FGFr-TK); details: 10 min at 25° C., glutamate-tyrosine co-polymer substrate; read-out: FGFr-TK inhibition, IC50
# T2 construct: amplify a fragment of DNA that codes for the intracellular tyrosine kinase domain; made in house; host or cells: SF9 insect cells, baculovirus (cell lysate used)
# Text: PDGF and FGF Receptor Tyrosine Kinase Assays
# Full length cDNAs for the mouse PDGF-β and human FGF-1 (flg) receptor tyrosine kinases were obtained from J. Escobedo and prepared as described in J. Biol. Chem., 262:1482-1487 […], and PCR primers were designed to amplify a fragment of DNA that codes for the intracellular tyrosine kinase domain. The fragment was melded into a baculovirus vector, cotransfected with AcMNPV DNA, and the recombinant virus isolated. SF9 insect cells were infected with the virus to overexpress the protein, and the cell lysate was used for the assay. […] Briefly, to each well was added 82.5 μL of incubation buffer containing 25 mM Hepes (pH 7.0), 150 mM NaCl, 0.1% Triton X-100, 0.2 mM PMSF, 0.2 mM Na3 VO4, 10 mM MnCl2, and 750 μg/mL of Poly (4:1) glutamate-tyrosine followed by 2.5 μL of inhibitor and 5 μL of enzyme lysate (7.5 μg/μL FGF-TK or 6.0 μg/μL PDGF-TK) to initiate the reaction. Following a 10 minute incubation at 25° C., 10 μL of γ^32 P-ATP (0.4 μCi plus 50 μM ATP) was added to each well and samples were incubated for an additional 10 minutes at 25° C. […] Nonspecific activity was defined as radioactivity retained on the filters following incubation of samples with buffer alone (no enzyme). […]
# C-src kinase = target: T3, C-src kinase (Homo sapiens, UniProt P12931); assay: C-src kinase assay; details: poly GluTyr substrate, 10 min, room temperature; read-out: C-src TK inhibition, IC50
# T3 construct: made in house; host or cells: baculovirus infected insect cells
# Experimental: The antibody, covalently linked to 0.65-μm latex beads, is added to a suspension of insect cell lysis buffer comprised of 150 mM NaCl, 50 mM Tris pH 7.5, 1 mM DTT, 1% NP-40, 2 mM EGTA, 1 mM sodium vanadate, 1 mM PMSF, 1 μg/mL each of leupeptin, pepstatin, and aprotinin. […] At the end of the lysate incubation, the beads are rinsed 3 times in lysis buffer, resuspended in lysis buffer containing 10% glycerol, and frozen. These latex beads are thawed, rinsed 3 times in assay buffer which is comprised of 40 mM tris pH 7.5, 5 mM MgCl2, and suspended in the same buffer. […] The reaction is started at room temperature by addition of the ATP and quenched 10 minutes later by the addition of 125 μL of 30% TCA, 0.1M sodium pyrophosphate for 5 minutes on ice. The plate is then filtered and the wells washed with two 250-μL aliquots of 15% TCA, 0.1M pyrophosphate. The filters are punched, counted in a liquid scintillation counter, and the data examined for inhibitory activity in comparison to a known inhibitor such as erbstatin. The method is described more fully in J. Med. Chem., 37:598-609 (1994).
# T1 sequence (P05622 599-961 limits assumed): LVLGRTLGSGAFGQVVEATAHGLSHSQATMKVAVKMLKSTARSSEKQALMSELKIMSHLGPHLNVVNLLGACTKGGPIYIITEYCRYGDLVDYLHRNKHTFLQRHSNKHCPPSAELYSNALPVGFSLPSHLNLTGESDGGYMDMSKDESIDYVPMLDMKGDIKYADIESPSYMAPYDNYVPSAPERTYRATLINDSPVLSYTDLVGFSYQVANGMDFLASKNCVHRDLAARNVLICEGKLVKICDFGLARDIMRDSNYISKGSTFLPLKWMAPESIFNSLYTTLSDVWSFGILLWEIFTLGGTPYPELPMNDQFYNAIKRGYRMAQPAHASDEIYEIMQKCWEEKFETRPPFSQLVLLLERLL
# T3 sequence (P12931 whole entry): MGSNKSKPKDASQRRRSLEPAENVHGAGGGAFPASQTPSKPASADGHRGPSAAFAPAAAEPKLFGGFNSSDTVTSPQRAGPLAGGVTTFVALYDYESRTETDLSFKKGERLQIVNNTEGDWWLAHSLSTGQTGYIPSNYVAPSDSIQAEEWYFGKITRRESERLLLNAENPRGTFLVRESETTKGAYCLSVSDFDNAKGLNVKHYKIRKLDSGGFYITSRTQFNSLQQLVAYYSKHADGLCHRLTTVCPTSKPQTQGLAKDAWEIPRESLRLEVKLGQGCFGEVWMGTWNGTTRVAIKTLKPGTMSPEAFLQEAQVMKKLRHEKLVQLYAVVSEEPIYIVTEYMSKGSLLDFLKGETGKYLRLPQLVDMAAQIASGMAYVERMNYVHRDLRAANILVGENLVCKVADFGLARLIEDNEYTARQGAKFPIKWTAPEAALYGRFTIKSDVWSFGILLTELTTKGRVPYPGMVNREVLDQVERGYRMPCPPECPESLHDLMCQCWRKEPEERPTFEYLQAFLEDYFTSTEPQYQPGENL
# T2 sequence (P11362 478-767 limits assumed): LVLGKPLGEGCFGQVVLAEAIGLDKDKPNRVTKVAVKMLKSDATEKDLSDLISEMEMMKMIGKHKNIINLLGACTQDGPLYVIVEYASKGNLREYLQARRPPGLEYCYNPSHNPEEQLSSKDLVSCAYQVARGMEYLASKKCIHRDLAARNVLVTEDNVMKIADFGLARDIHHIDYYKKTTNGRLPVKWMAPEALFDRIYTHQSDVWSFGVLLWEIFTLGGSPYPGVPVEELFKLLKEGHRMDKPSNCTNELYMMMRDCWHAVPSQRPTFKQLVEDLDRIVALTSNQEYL
structure (smiles),measurement,setting,value
"CC[N+]([O-])(CC)CCOc1ccc(Nc2ncc3cc(-c4c(Cl)cccc4Cl)c(=O)n(C)c3n2)cc1 [Example 43, 6-(2,6-Dichlorophenyl)-2-[4-[2-(diethylamino)ethoxyl-thenyl]aminol-8-methyl-pyridor2,3-d]pyrimidin-7 (8H)-one, N^ω -oxide]",IC50,[1],70 nM
same,IC50,[2],63 nM
same,IC50,C-src kinase,15 nM
